Like-named read-outs stand apart in the source and are kept apart here.
Target: T1, human FXR (NR1H4) (Homo sapiens, UniProt Q96RI1)
T1 sequence (Q96RI1 1-476 isoform Q96RI1-1): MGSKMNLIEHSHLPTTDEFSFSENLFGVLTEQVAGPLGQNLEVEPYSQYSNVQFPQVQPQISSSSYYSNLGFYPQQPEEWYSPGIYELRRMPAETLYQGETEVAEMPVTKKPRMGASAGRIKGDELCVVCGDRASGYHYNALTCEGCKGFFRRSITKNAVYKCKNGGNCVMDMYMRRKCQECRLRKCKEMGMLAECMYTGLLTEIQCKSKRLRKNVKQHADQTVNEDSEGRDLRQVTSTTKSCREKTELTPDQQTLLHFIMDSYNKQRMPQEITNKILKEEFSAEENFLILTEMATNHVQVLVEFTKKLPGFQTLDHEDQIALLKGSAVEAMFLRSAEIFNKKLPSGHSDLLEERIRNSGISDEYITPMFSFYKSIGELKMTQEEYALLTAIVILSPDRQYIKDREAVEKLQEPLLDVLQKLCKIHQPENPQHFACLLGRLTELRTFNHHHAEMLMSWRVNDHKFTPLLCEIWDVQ
Assay: Human FXR (NR1H4) agonist assessment, FXRE-NanoLuc reporter in HEK293T cells
Assay type: cell-based
Conditions: for EC50: read-out: EC50
Experimental: As those skilled in the art appreciate, various technologies are available for assessment of FXR activation in accordance with the present disclosure. […] Human FXR (NR1H4) agonist assessment (see, e.g., Yu et al. eLife 2019; 8: e48431): HEK293T cells stably expressing human FXR and containing FXR response element (FXRE)-NanoLuc reporter were cultured in DMEM medium supplemented with 10% FBS and 1% PS, at 37° C. in a humidified atmosphere with 5% CO2. Cells were detached by centrifuging (1000 rpm, 3 min). The pellet was re-suspended in medium, and cell density was adjusted to about 1×10^6 cells/mL. 100 μL suspension was seeded to each well of a white-walled, clear-bottom 96-well microplates (cell plate). Cells in microplates were cultured overnight.
In the following day, cells were grown to higher than 95% density in each well. Culture medium was replaced, and compounds were added to the wells. 0.01% DMSO (v/v) served as negative control. Plates were incubated at 37° C. in 5% CO2 for 24 hr.
In the following day, a 10 μL aliquot of cell culture medium was removed from each well and combined with 40 μL culture medium plus […] assay buffer (containing 20 mM of the luciferase substrate coelenterazine). After 5 min incubation, luminescence was measured using an EnVision plate reader (PerkinElmer).
In some embodiments, gradient diluted solutions of several concentrations were used to treat cells and corresponding responses were used to fit sigmoid function and to derive EC50 in Origin.

[1] = FXR activation, HEK293T FXRE-NanoLuc reporter, 24 hr

| SMILES | Efficacy (maximum measured induction of NanoLuc, normalized to CDCA set as 100%) [1] | EC50 [1] [nM] | Efficacy (maximum measured induction of NanoLuc, normalized to CDCA set as 100%) |
| --- | --- | --- | --- |
| CC[C@H]1[C@@H](O)[C@@H]2[C@H](CC[C@]3(C)[C@@H]([C@H](C)CCNC(=O)C(=O)O)CC[C@@H]23)[C@@]2(C)CCCC[C@@H]12 [8-1] | B (300%<efficacy <=400%) | 1000 to 10000 |  |
| CC[C@H]1[C@@H](O)[C@@H]2[C@H](CC[C@]3(C)[C@@H]([C@H](C)CCN)CC[C@@H]23)[C@@]2(C)CCC(F)(F)C[C@@H]12 [11-1] | C (100%<efficacy <=300%) | > 10000 |  |
| CC[C@H]1[C@@H](O)[C@@H]2[C@H](CC[C@]3(C)[C@@H]([C@H](C)CCOC(=O)NS(=O)(=O)c4ccc(N5CCCCC5)nc4)CC[C@@H]23)[C@@]2(C)CCCC[C@@H]12 [19-2] | B (300%<efficacy <=400%) | < 1000 |  |
| CC[C@H]1[C@@H](O)[C@@H]2[C@H](CC[C@]3(C)[C@@H]([C@H](C)CCc4nnc(C(C)C)s4)CC[C@@H]23)[C@@]2(C)CCCC[C@@H]12 [15-1] | B (300%<efficacy <=400%) | 1000 to 10000 |  |
| CC[C@H]1[C@@H](O)[C@@H]2[C@H](CC[C@]3(C)[C@@H]([C@H](C)CCNC(=S)NS(=O)(=O)c4cccs4)CC[C@@H]23)[C@@]2(C)CCCC[C@@H]12 [7-3] |  | < 1000 | C (key: A: efficacy >400%; B: 300%<efficacy <=400%; C: 100%<efficacy <=300%; D: efficacy <=100%) |
| CC[C@H]1[C@@H](O)[C@@H]2[C@H](CC[C@]3(C)[C@@H]([C@H](C)CCNC(=N)NS(=O)(=O)c4cccs4)CC[C@@H]23)[C@@]2(C)CCCC[C@@H]12 [17-2] | B (300%<efficacy <=400%) | < 1000 |  |
| CC[C@H]1[C@@H](O)[C@@H]2[C@H](CC[C@]3(C)[C@@H]([C@H](C)CCc4nnc(N)[nH]4)CC[C@@H]23)[C@@]2(C)CCCC[C@@H]12 [15-2] | C (100%<efficacy <=300%) | < 1000 |  |
| CC[C@H]1[C@@H](O)[C@@H]2[C@H](CC[C@]3(C)[C@@H]([C@H](C)CCNC(=S)NS(=O)(=O)c4ccc(C(C)(C)CF)cc4)CC[C@@H]23)[C@@]2(C)CCCC[C@@H]12 [7-2] |  | < 1000 | B (key: A: efficacy >400%; B: 300%<efficacy <=400%; C: 100%<efficacy <=300%; D: efficacy <=100%) |
| C[C@H](CCC(=O)O)[C@H]1CC[C@H]2[C@@H]3CC[C@@H]4C[C@H](O)CC[C@]4(C)[C@H]3C[C@@H](O)[C@]12C [RC-4] | A (efficacy >400%) | < 1000 |  |

— patent US20260116910A1, “POLYCYCLIC COMPOUNDS AND METHODS THEREOF” (HEPAITECH (BEIJING) BIOPHARMA TECHNOLOGY CO., LTD., priority 2021, published 2026)
